Assay results: US20010016571A1, “N-[ (R) -1-{3- (4- piperidyl) propionyl } -3-piperidylcarbonyl] -2 (S) -acetylamino-beta -alanine as fibrinogen receptor antagonist” (FUJISAWA PHARMACEUTICAL CO., LTD., priority 1996, published 2001)

Molecular target: T1, fibrinogen binding to platelets (glycoprotein IIb/IIIa) (Homo sapiens, UniProt P05106+P08514)
T1 construct: Washed human platelets were prepared from platelet-rich plasma by gel filtration; from tissue
Assay: Test 1: Fibrinogen Binding to Platelets (FITC-fibrinogen, flow cytometry)
Conditions: washed human platelets activated with 20 μM ADP, fixed; 10 μg/ml FITC-fibrinogen; 30 minutes at room temperature; read-out: IC50 (dose required to inhibit the binding by 50%)
Method: Test 1: Fibrinogen Binding to Platelets
Washed human platelets were prepared from platelet-rich plasma by gel filtration. The washed platelets were activated with 20 μM ADP for 10 minutes and then fixed for 30 minutes with 0.8% paraformaldehyde. The platelets were then washed by centrifugation and suspended in HEPES-Tyrodes buffer containing […].
350 μl of platelets were incubated at a final concentration of 2×10^8/ml with 10 μg/ml FITC-fibrinogen and test compound. The reaction was left for 30 minutes at room temperature. The FITC fluoresence of bound fibrinogen was measured by using a FACS can flow cytometer.
Specific binding was calculated by subtracting the binding in the presence of 50-fold excess unlabeled fibrinogen. Result was expressed at IC50 value, i.e. dose required to inhibit the binding by 50%.

T1 sequence (P08514 32-887 limits assumed): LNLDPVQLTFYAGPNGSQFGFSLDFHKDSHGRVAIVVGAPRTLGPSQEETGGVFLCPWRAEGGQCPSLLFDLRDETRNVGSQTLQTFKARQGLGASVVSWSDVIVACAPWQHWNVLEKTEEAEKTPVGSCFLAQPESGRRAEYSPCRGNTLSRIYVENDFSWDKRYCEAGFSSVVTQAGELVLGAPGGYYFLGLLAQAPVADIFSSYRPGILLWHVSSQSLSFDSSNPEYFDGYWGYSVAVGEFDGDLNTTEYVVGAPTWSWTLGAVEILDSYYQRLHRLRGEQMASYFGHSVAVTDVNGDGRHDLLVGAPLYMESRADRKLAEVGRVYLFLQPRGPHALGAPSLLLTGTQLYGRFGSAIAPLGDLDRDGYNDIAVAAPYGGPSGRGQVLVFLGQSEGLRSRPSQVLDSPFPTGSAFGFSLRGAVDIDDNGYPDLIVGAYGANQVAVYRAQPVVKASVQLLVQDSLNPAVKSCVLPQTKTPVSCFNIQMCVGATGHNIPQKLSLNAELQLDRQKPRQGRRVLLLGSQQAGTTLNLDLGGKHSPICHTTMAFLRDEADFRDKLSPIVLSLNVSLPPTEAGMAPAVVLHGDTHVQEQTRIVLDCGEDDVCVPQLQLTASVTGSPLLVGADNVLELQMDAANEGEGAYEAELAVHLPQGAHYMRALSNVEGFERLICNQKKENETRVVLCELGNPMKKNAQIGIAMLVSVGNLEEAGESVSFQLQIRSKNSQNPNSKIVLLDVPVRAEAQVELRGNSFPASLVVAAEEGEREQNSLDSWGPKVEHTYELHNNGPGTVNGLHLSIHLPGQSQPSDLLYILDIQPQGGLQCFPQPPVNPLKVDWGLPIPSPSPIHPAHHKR
T1 sequence (P08514 891-1039 limits assumed): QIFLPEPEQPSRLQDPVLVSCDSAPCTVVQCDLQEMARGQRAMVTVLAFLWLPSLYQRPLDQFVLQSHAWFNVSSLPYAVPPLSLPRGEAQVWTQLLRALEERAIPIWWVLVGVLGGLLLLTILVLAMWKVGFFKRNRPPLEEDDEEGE
T1 sequence (P05106 27-788): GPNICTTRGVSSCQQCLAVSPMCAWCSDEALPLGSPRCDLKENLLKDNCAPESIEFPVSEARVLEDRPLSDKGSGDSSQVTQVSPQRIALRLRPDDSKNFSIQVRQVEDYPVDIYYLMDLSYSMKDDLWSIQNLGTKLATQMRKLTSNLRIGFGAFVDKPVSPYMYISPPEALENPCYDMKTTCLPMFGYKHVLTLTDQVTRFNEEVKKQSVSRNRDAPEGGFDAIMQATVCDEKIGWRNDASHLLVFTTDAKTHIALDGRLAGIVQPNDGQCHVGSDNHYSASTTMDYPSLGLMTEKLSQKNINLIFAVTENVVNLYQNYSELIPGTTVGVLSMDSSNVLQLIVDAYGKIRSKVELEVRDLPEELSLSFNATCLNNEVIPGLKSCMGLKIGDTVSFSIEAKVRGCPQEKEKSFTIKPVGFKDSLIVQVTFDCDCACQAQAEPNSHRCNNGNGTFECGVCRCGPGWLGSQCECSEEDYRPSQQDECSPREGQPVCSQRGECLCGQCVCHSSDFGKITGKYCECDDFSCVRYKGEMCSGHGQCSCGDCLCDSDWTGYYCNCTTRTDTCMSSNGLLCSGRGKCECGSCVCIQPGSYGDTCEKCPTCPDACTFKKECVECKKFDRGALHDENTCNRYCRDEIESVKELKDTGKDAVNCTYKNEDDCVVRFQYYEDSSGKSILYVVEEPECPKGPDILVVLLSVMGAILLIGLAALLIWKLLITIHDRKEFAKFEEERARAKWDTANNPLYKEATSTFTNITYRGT

IC50: 16 nM
SMILES: CC(=O)NC(CNC(=O)[C@@H]1CCCN(C(=O)CCC2CCNCC2)C1)C(=O)O (stereo partly shown) [Example 1]
